The values that follow come from patent US7211588B2, “N-substituted indolyl-3-glyoxylamides, their use as medicaments and process for their preparation” (Zentaris GmbH, priority 2003, dated 2007).

The IC50 is the point on the concentration scale where inhibition reaches its midpoint. Low readings indicate greater potency in that assay, high ones weaker potency in that assay. The term melting point denotes the temperature of the solid-liquid transition.

≈ marks a conversion by molar mass, not a printed value.

In series [1] the test system is human cervical carcinoma cell line KB/HeLa (ATCC CCL17). As to the kind of experiment: XTT proliferation/cytotoxicity test, KB/HeLa. The class given is cell-based. Particulars: KB/HeLa cells. The source says:
(§1) Substance 1 was investigated for its antiproliferative action in a proliferation test using established tumor cell (D. A. Scuderio et al. Cancer Res. 1988, 48, 4827–4833). The test used determines the cellular dehydrogenase activity and permits a determination of the cell vitality and, indirectly, of the cell count. The cell lines used are the human cervical carcinoma cell line KB/HeLa (ATCC CCL17), the ovarial adeno carcinoma cell line SKOV-3 (ATCC HTB77), the human glioblastoma cell line SF-268 (NCl 503138) and the pulmonary carcinoma cell line NCl-H460 (NCl 503473).

Another series has as its system murine cell line L1210. As to the kind of experiment: XTT proliferation test, L1210. The class given is cell-based. To be noted: Mus musculus, L1210 wild-type cells.
Source text: as §1, with “503473). Substance 1 was further characterized by testing with regard to multidrug-resistant cell lines as compared with the nonresistant wild-type cell lines. The cell lines tested are the murine cell line L1210, the acute myeloid leukemia cell line LT12 and the resistant lines L1210/mdr and LT12/mdr. Further test systems used are the murine P388 cell line (methylcholanthrene-induced lymphoid neoplasm) and the doxorubicin-resistant P388 cell line.” for “503473).”

Series [2] has as its system acute myeloid leukemia cell line LT12. As to the kind of experiment: XTT proliferation test, LT12. The class given is cell-based. To be noted: Rattus norvegicus, LT12 wild-type cells.
Source text: as §1, with “503473). Substance 1 was further characterized by testing with regard to multidrug-resistant cell lines as compared with the nonresistant wild-type cell lines. The cell lines tested are the murine cell line L1210, the acute myeloid leukemia cell line LT12 and the resistant lines L1210/mdr and LT12/mdr. Further test systems used are the murine P388 cell line (methylcholanthrene-induced lymphoid neoplasm) and the doxorubicin-resistant P388 cell line.” for “503473).”
(In general: Tetrazolium assays rely on reduction of a dye to a coloured formazan, in cell work by metabolically active cells.)

Series [3] concerns pulmonary carcinoma cell line NCl-H460 (NCl 503473). Description: XTT proliferation/cytotoxicity test, NCI-H460. The class given is cell-based. To be noted: Homo sapiens, NCI-H460 cells.
Source text: as §1

The test system of series [4] is murine P388 cell line (methylcholanthrene-induced lymphoid neoplasm). As to the kind of experiment: XTT proliferation test, P388. The class given is cell-based. Particulars: Mus musculus, P388 wild-type cells.
Source text: as §1, with “503473). Substance 1 was further characterized by testing with regard to multidrug-resistant cell lines as compared with the nonresistant wild-type cell lines. The cell lines tested are the murine cell line L1210, the acute myeloid leukemia cell line LT12 and the resistant lines L1210/mdr and LT12/mdr. Further test systems used are the murine P388 cell line (methylcholanthrene-induced lymphoid neoplasm) and the doxorubicin-resistant P388 cell line.” for “503473).”

In series [5] the test system is ovarial adeno carcinoma cell line SKOV-3 (ATCC HTB77). Description: XTT proliferation/cytotoxicity test, SK-OV-3. The class given is cell-based. Particulars: Homo sapiens, SK-OV-3 cells.
Source text: as §1

Series [6] relates to human glioblastoma cell line SF-268 (NCl 503138). As to the kind of experiment: XTT proliferation/cytotoxicity test, SF-268. Particulars: SF-268 cells. The class given is cell-based.
Source text: as §1

For series [7], the system named is doxorubicin-resistant P388 cell line. Description: XTT proliferation test, P388ADR. To be noted: Mus musculus, doxorubicin-resistant P388ADR cells. The class given is cell-based, murine.
Source text: as §1, with “503473). Substance 1 was further characterized by testing with regard to multidrug-resistant cell lines as compared with the nonresistant wild-type cell lines. The cell lines tested are the murine cell line L1210, the acute myeloid leukemia cell line LT12 and the resistant lines L1210/mdr and LT12/mdr. Further test systems used are the murine P388 cell line (methylcholanthrene-induced lymphoid neoplasm) and the doxorubicin-resistant P388 cell line.” for “503473).”

A further series relates to resistant line LT12/mdr. As to the kind of experiment: XTT proliferation test, LT12mdr. The class given is cell-based. Particulars: Rattus norvegicus, multidrug-resistant LT12mdr cells.
Source text: as §1, with “503473). Substance 1 was further characterized by testing with regard to multidrug-resistant cell lines as compared with the nonresistant wild-type cell lines. The cell lines tested are the murine cell line L1210, the acute myeloid leukemia cell line LT12 and the resistant lines L1210/mdr and LT12/mdr. Further test systems used are the murine P388 cell line (methylcholanthrene-induced lymphoid neoplasm) and the doxorubicin-resistant P388 cell line.” for “503473).”

The subject of series [8] is resistant line L1210/mdr (L1210VCR). Description: XTT proliferation test, L1210VCR. The class given is cell-based, murine. To be noted: Mus musculus, resistant L1210VCR cells.
Source text: as §1, with “503473). Substance 1 was further characterized by testing with regard to multidrug-resistant cell lines as compared with the nonresistant wild-type cell lines. The cell lines tested are the murine cell line L1210, the acute myeloid leukemia cell line LT12 and the resistant lines L1210/mdr and LT12/mdr. Further test systems used are the murine P388 cell line (methylcholanthrene-induced lymphoid neoplasm) and the doxorubicin-resistant P388 cell line.” for “503473).”

Consider `O=C(C(=O)N(C(=O)c1ccccc1)c1ccc2ncccc2c1)c1cn(Cc2ccc(Cl)cc2)c2ccccc12` [Compound 1, N-{2-[1-(4-Chlorobenzyl)-1H-indol-3-yl]-2-oxoacetyl}-N-quinolin-6-ylbenzamide], for which the melting point came to 213 °C. The IC50 in [1] turned out to be 0.17 µg/mL (≈ 0.312 µM). The molecule also came in with a 50% inhibitory concentration (IC50) in the series on murine cell line L1210 of 0.255 µg/mL (≈ 0.469 µM). Also, in series [2], the IC50 came to 0.226 µg/mL (≈ 0.415 µM). In addition, inhibition in series [3] was half-maximal at 0.222 µg/mL (≈ 0.408 µM) (IC50). The same molecule registered an IC50 in [4] of 0.219 µg/mL (≈ 0.403 µM). This molecule came in with a half-maximal inhibitory concentration (IC50) in series [5] of 0.139 µg/mL (≈ 0.256 µM). The IC50 in series [6] turned out to be 0.261 µg/mL (≈ 0.48 µM). In series [7], this molecule came in with an IC50 of 0.252 µg/mL (≈ 0.463 µM). This molecule had an IC50 in the series on resistant line LT12/mdr of 0.277 µg/mL (≈ 0.509 µM). Further, the IC50 in series [8] amounted to 0.577 µg/mL (≈ 1.06 µM).
